# Experimental data: PubChem BioAssay (NCI)
#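 Tested at 5 concentrations; 48 h exposure; 96-well plates; endpoints linearly interpolated, else capped at highest concentration. Abbreviation: GI50, concentration required for 50% inhibition of growth. The concentration for full growth arrest is given as TGI.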
# Columns and labels:
# Experiment in all cases: growth of human tumour cells (NCI), 48 h
# 786-0 renal = test system: 786-0 renal
# A498 renal = test system: A498 renal
# A549 NSCLC = test system: A549 NSCLC
# ACHN renal = test system: ACHN renal
# BT-549 breast = test system: BT-549 breast
# CAKI-1 renal = test system: CAKI-1 renal
# CCRF-CEM leukemia = test system: CCRF-CEM leukemia
# COLO 205 colon = test system: COLO 205 colon
# DU-145 prostate = test system: DU-145 prostate
# HCC-2998 colon = test system: HCC-2998 colon
# HCT-116 colon = test system: HCT-116 colon
# HCT-15 colon = test system: HCT-15 colon
# HL-60(TB) leukemia = test system: HL-60(TB) leukemia
# HOP-62 NSCLC = test system: HOP-62 NSCLC
# HOP-92 NSCLC = test system: HOP-92 NSCLC
# HS 578T breast = test system: HS 578T breast
# HT29 colon = test system: HT29 colon
# IGROV1 ovarian = test system: IGROV1 ovarian
# K-562 leukemia = test system: K-562 leukemia
# KM12 colon = test system: KM12 colon
# LOX IMVI melanoma = test system: LOX IMVI melanoma
# M14 melanoma = test system: M14 melanoma
# MALME-3M melanoma = test system: MALME-3M melanoma
# MCF7 breast = test system: MCF7 breast
# MDA-MB-231 breast = test system: MDA-MB-231 breast
# MDA-MB-435 = test system: MDA-MB-435
# MOLT-4 leukemia = test system: MOLT-4 leukemia
# NCI-H226 lung = test system: NCI-H226 lung
# NCI-H23 lung = test system: NCI-H23 lung
# NCI-H460 lung = test system: NCI-H460 lung
# NCI-H522 lung = test system: NCI-H522 lung
# NCI/ADR-RES ovarian = test system: NCI/ADR-RES ovarian
# OVCAR-3 ovarian = test system: OVCAR-3 ovarian
# OVCAR-4 ovarian = test system: OVCAR-4 ovarian
# OVCAR-5 ovarian = test system: OVCAR-5 ovarian
# OVCAR-8 ovarian = test system: OVCAR-8 ovarian
# PC-3 prostate = test system: PC-3 prostate
# RPMI-8226 leukemia = test system: RPMI-8226 leukemia
# RXF 393 renal = test system: RXF 393 renal
# SF-268 CNS = test system: SF-268 CNS
# SF-295 CNS = test system: SF-295 CNS
# SF-539 CNS = test system: SF-539 CNS
# SK-MEL-2 melanoma = test system: SK-MEL-2 melanoma
# SK-MEL-28 melanoma = test system: SK-MEL-28 melanoma
# SK-MEL-5 melanoma = test system: SK-MEL-5 melanoma
# SK-OV-3 ovarian = test system: SK-OV-3 ovarian
# SN12C renal = test system: SN12C renal
# SNB-19 CNS = test system: SNB-19 CNS
# SNB-75 CNS = test system: SNB-75 CNS
# SR leukemia = test system: SR leukemia
# SW-620 colon = test system: SW-620 colon
# T-47D breast = test system: T-47D breast
# TK-10 renal = test system: TK-10 renal
# U251 CNS = test system: U251 CNS
# UACC-257 melanoma = test system: UACC-257 melanoma
# UACC-62 melanoma = test system: UACC-62 melanoma
# UO-31 renal = test system: UO-31 renal
smiles,measurement,setting,value
Cc1ccc(C(=O)N2C/C(=C/c3ccccc3)C(=O)/C(=C/c3ccccc3)C2)cc1,GI50,786-0 renal,3.52 µM
same,TGI,786-0 renal,15.2 µM
same,GI50,A498 renal,> 65 µM
same,TGI,A498 renal,> 100 µM
same,GI50,A549 NSCLC,63.3 µM
same,TGI,A549 NSCLC,> 100 µM
same,GI50,ACHN renal,5.04 µM
same,TGI,ACHN renal,> 67.1 µM
same,GI50,BT-549 breast,3.42 µM
same,TGI,BT-549 breast,15.8 µM
same,GI50,CAKI-1 renal,> 57.5 µM
same,TGI,CAKI-1 renal,> 100 µM
same,GI50,CCRF-CEM leukemia,2.23 µM
same,TGI,CCRF-CEM leukemia,> 100 µM
same,GI50,COLO 205 colon,8.7 µM
same,TGI,COLO 205 colon,> 100 µM
same,GI50,DU-145 prostate,17.8 µM
same,TGI,DU-145 prostate,> 100 µM
same,GI50,HCC-2998 colon,3.08 µM
same,TGI,HCC-2998 colon,8.67 µM
same,GI50,HCT-116 colon,0.226 µM
same,TGI,HCT-116 colon,0.548 µM
same,GI50,HCT-15 colon,3.13 µM
same,TGI,HCT-15 colon,> 100 µM
same,GI50,HL-60(TB) leukemia,18.8 µM
same,TGI,HL-60(TB) leukemia,> 100 µM
same,GI50,HOP-62 NSCLC,4.96 µM
same,TGI,HOP-62 NSCLC,61.3 µM
same,GI50,HOP-92 NSCLC,10.7 µM
same,TGI,HOP-92 NSCLC,> 100 µM
same,GI50,HS 578T breast,4.48 µM
same,TGI,HS 578T breast,50.7 µM
same,GI50,HT29 colon,2.03 µM
same,TGI,HT29 colon,7 µM
same,GI50,IGROV1 ovarian,12.8 µM
same,TGI,IGROV1 ovarian,> 100 µM
same,GI50,K-562 leukemia,1.66 µM
same,TGI,K-562 leukemia,> 100 µM
same,GI50,KM12 colon,1.43 µM
same,TGI,KM12 colon,6.94 µM
same,GI50,LOX IMVI melanoma,1.16 µM
same,TGI,LOX IMVI melanoma,3.08 µM
same,GI50,M14 melanoma,3.85 µM
same,TGI,M14 melanoma,> 92.1 µM
same,GI50,MALME-3M melanoma,30.6 µM
same,TGI,MALME-3M melanoma,> 100 µM
same,GI50,MCF7 breast,0.387 µM
same,TGI,MCF7 breast,> 41.9 µM
same,GI50,MDA-MB-231 breast,4.61 µM
same,TGI,MDA-MB-231 breast,> 77.2 µM
same,GI50,MDA-MB-435,1.01 µM
same,TGI,MDA-MB-435,6.41 µM
same,GI50,MOLT-4 leukemia,4.98 µM
same,TGI,MOLT-4 leukemia,> 100 µM
same,TGI,NCI-H226 lung,> 100 µM
same,GI50,NCI-H23 lung,8.86 µM
same,TGI,NCI-H23 lung,> 100 µM
same,GI50,NCI-H460 lung,31 µM
same,TGI,NCI-H460 lung,> 100 µM
same,GI50,NCI-H522 lung,11.6 µM
same,TGI,NCI-H522 lung,> 56 µM
same,GI50,NCI/ADR-RES ovarian,27.7 µM
same,TGI,NCI/ADR-RES ovarian,> 100 µM
same,GI50,OVCAR-3 ovarian,6.8 µM
same,TGI,OVCAR-3 ovarian,> 100 µM
same,GI50,OVCAR-4 ovarian,16.5 µM
same,TGI,OVCAR-4 ovarian,> 100 µM
same,GI50,OVCAR-5 ovarian,> 75.5 µM
same,TGI,OVCAR-5 ovarian,> 100 µM
same,GI50,OVCAR-8 ovarian,5.09 µM
same,TGI,OVCAR-8 ovarian,> 100 µM
same,GI50,PC-3 prostate,6.08 µM
same,TGI,PC-3 prostate,> 100 µM
same,GI50,RPMI-8226 leukemia,0.131 µM
same,TGI,RPMI-8226 leukemia,0.971 µM
same,GI50,RXF 393 renal,2.2 µM
same,TGI,RXF 393 renal,6.39 µM
same,GI50,SF-268 CNS,10.8 µM
same,TGI,SF-268 CNS,> 100 µM
same,GI50,SF-295 CNS,5.36 µM
same,TGI,SF-295 CNS,> 100 µM
same,GI50,SF-539 CNS,9.66 µM
same,TGI,SF-539 CNS,72.2 µM
same,GI50,SK-MEL-2 melanoma,> 62.8 µM
same,TGI,SK-MEL-2 melanoma,> 100 µM
same,GI50,SK-MEL-28 melanoma,8.98 µM
same,TGI,SK-MEL-28 melanoma,68.9 µM
same,GI50,SK-MEL-5 melanoma,3.3 µM
same,TGI,SK-MEL-5 melanoma,> 31.6 µM
same,GI50,SK-OV-3 ovarian,8.64 µM
same,TGI,SK-OV-3 ovarian,> 100 µM
same,GI50,SN12C renal,7.34 µM
same,TGI,SN12C renal,> 100 µM
same,GI50,SNB-19 CNS,9.51 µM
same,TGI,SNB-19 CNS,> 100 µM
same,GI50,SNB-75 CNS,2.58 µM
same,TGI,SNB-75 CNS,16.4 µM
same,GI50,SR leukemia,0.461 µM
same,TGI,SR leukemia,9.09 µM
same,GI50,SW-620 colon,2.94 µM
same,TGI,SW-620 colon,> 59.3 µM
same,GI50,T-47D breast,15.6 µM
same,TGI,T-47D breast,> 100 µM
same,GI50,TK-10 renal,20.8 µM
same,TGI,TK-10 renal,90 µM
same,GI50,U251 CNS,3.28 µM
same,TGI,U251 CNS,> 100 µM
same,GI50,UACC-257 melanoma,10.1 µM
same,TGI,UACC-257 melanoma,> 100 µM
same,GI50,UACC-62 melanoma,4.49 µM
same,TGI,UACC-62 melanoma,25.8 µM
same,GI50,UO-31 renal,10.2 µM
same,TGI,UO-31 renal,> 100 µM
